Results: publication PMC7311409, “Crystal structures of SAMHD1 inhibitor complexes reveal the mechanism of water-mediated dNTP hydrolysis” (Nature Communications, 2020)
Like-named read-outs stand apart in the source and are kept apart here.

Tests used:
[1] = molecular target: T1, SAMHD1 (Homo sapiens, UniProt Q9Y3Z3); set-up: wt-SAMHD1(1-626); MDCC-PBP phosphate sensor coupled SAMHD1-Ppx1 assay, competitive inhibition of TTP hydrolysis, global fit; settings: GTP-activated, substrate TTP 0.1-1 mM, pH 8.0, 25 °C; inhibitor
Method: To obtain quantitative kinetic parameters for substrate hydrolysis (KM and kcat) and for inhibition by dNMPNPP analogues (Ki) a coupled assay was employed utilising the biosensor MDCC-PBP[90],[91] to measure phosphate release from combined SAMHD1 triphosphohydrolase and S. cerevisiae Ppx1 exopolyphosphatase activity. In a typical experiment, solutions containing wt-SAMHD1(1-626), Ppx1, MDCC-PBP and GTP were incubated for 5 min in assay buffer (20 mM Tris pH 8.0, 150 mM NaCl, 5 mM MgCl2 and 2 mM TCEP) at 25 °C before the reaction was initiated by the addition of nucleotides and nucleotide analogues. The final concentrations were 0.2 µM SAMHD1, 0.01 µM Ppx1, 40 µM MDCC-PBP, 0.2 mM GTP and varying concentrations of dNTP substrates and analogues. The fluorescence intensity was recorded at 430 nm excitation and 465 nm emission over a period of 10–30 min in a Clariostar multiwell plate reader (BMG Labtech). […] Apparent dissociation constants for substrate binding (KM) and catalytic constants (kcat) were then determined by non-linear least-squares fitting using a hyperbolic function in the software package Prism 7 (Graphpad). […] The fitting was performed with a fixed value of KM for GTP-activated TTP hydrolysis, determined previously[35] and only kcat and Ki were allowed to vary. […]
Target sequence in this assay (Q9Y3Z3 whole entry): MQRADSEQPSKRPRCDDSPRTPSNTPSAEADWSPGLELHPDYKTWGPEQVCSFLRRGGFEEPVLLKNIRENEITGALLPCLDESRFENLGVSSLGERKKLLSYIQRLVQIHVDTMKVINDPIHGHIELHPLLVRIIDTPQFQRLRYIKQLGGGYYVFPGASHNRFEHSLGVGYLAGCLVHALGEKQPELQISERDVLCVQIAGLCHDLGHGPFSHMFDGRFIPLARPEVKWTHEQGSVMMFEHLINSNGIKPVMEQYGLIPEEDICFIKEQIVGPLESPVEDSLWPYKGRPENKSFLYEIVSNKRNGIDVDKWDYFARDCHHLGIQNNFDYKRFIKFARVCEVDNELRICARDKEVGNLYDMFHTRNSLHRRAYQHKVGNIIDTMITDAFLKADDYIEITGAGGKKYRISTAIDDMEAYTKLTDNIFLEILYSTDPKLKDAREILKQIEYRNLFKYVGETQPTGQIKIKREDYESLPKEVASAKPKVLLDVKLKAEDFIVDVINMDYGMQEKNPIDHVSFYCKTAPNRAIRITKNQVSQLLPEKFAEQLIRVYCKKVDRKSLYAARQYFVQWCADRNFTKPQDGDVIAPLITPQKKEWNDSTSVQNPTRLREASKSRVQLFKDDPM

[2] = molecular target: T1, SAMHD1; assay: X-ray co-crystal structure; competitive inhibition in coupled enzyme assay; assay type: binding; set-up: residues 109-626 (crystal)
Target sequence in this assay (Q9Y3Z3 109-626): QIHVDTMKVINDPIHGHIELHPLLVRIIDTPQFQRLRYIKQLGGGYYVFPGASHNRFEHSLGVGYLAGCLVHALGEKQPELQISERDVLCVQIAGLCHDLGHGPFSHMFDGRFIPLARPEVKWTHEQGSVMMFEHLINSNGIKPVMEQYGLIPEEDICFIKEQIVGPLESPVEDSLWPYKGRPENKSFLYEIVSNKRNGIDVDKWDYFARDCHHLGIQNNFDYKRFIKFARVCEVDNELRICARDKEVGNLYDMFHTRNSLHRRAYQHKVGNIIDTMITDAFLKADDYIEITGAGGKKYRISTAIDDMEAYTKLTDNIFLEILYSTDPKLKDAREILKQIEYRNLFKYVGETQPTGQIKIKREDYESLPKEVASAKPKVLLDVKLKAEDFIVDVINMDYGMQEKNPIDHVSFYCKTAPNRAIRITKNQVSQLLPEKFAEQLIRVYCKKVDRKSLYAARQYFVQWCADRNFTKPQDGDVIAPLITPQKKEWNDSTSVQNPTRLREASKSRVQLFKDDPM

[3] = molecular target: T2, SAMHD1 (Homo sapiens, UniProt Q9Y3Z3, D137N); assay: X-ray co-crystal structure; activation of dNTP hydrolysis; assay type: binding
T2 construct: residues 109-626
T2 sequence (Q9Y3Z3 109-626 D137N): as the sequence (Q9Y3Z3 109-626) above, with D29N counted along it

[4] = molecular target: T1, SAMHD1; assay: MDCC-PBP/Ppx1 coupled triphosphohydrolase assay, competitive inhibition of TTP hydrolysis, global fit; SEC-MALLS tetramerisation; assay type: biochemical; set-up: wt-SAMHD1(1-626)
Target sequence in this assay (Q9Y3Z3 whole entry): as the sequence (Q9Y3Z3 whole entry) above

[5] = molecular target: T2, SAMHD1; assay: X-ray co-crystal structure; assay type: binding

Structure (SMILES)	Ki [1] [nM]	Ki [4] [nM]	further results
Cc1cn([C@H]2C[C@H](O)[C@@H](COP(=O)(O)NP(=O)(O)OP(=O)(O)O)O2)c(=O)[nH]c1=O [TMPNPP]	370 ± 20	–	X-ray co-crystal structure [2]: (ii) GTP (AL1), dATP (AL2) and TMPNPP (active site)
O=c1[nH]c(=O)c2ncn([C@@H]3O[C@H](COP(=O)(O)OP(=O)(O)OP(=O)(O)O)[C@@H](O)[C@H]3O)c2[nH]1 [XTP]	–	–	X-ray co-crystal structure; activation of dNTP hydrolysis [3]: D137N-SAMHD1 is activated by xanthosine-5′-triphosphate (XTP) rather than GTP through AL1-binding
Nc1ncnc2c1ncn2[C@H]1C[C@H](O)[C@@H](COP(=O)(O)NP(=O)(O)OP(=O)(O)O)O1 [dAMPNPP]	–	780	–
Nc1ccn([C@H]2C[C@H](O)[C@@H](COP(=O)(O)NP(=O)(O)OP(=O)(O)O)O2)c(=O)n1 [dCMPNPP]	73 ± 3	–	–
Nc1nc2c(ncn2[C@H]2C[C@H](O)[C@@H](COP(=O)(O)NP(=O)(O)OP(=O)(O)O)O2)c(=O)[nH]1 [dGMPNPP]	–	52	X-ray co-crystal structure [5]: (ii) XTP (AL1) and dGMPNPP (AL2 and active site)
